The results in this text go back to patent publication US20250326815A1, “STAPLE-CONTAINING POLYPEPTIDES AND APPLICATION THEREOF” (Soter Biopharma Pte. Ltd., priority 2021, published 2025).

Assay type in all cases: cell-based
Test [1] has as its target T1, GIPR (Homo sapiens, UniProt P48546).
T1 construct: host or cells: CHO
T1 sequence (P48546 22-466): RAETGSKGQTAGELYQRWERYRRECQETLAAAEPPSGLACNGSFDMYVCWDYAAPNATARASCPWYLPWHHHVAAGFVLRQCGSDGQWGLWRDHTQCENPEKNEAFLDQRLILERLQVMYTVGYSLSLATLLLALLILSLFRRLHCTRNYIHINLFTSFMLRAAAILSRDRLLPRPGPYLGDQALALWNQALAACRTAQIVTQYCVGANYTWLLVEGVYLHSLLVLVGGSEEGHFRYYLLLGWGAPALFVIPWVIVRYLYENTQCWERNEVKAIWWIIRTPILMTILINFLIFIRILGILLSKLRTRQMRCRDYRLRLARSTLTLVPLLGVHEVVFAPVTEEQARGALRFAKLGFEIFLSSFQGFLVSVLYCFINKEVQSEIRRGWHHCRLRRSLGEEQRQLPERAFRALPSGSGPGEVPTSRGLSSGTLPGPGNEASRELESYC
Nature of the test: In vitro agonistic activity on GIPR (cAMP assay). The note with it: CHO cell line; for Agonistic activity on GIPR Max Activity (%): Max Dose 20 nM. The method, then:
(§1) The cell lines were constructed by Shanghai WuXi AppTec.
(§2) The compounds to be assayed were serially diluted 4-fold with Bravo to obtain 10 concentrations, with a starting concentration of 30 μM.
(§3) 1) 100 nL of the compound was transferred to an OptiPlate-384 plate using Echo.
(§4) 2) The OptiPlate-384 plate was centrifuged at 1000 rpm for 5 seconds.
(§5) 1) A GLP-1R/GIPR/GCGR cell cryopreservation tube was quickly placed in warm water at 37° C. to thaw.
(§6) 2) The cell suspension was transferred to a 15 mL centrifuge tube, and gently washed with 10 ml of HBSS.
(§7) 3) The centrifuge tube was centrifuged at 1000 rpm at room temperature for 1 minute.
(§8) 4) The supernatant was discarded.
(§9) 5) The cells at the bottom were gently dispersed and gently washed with 10 ml of HBSS. The cells were centrifuged and sedimented, and finally resuspended with the assay buffer.
(§10) 6) Vi-cell was used to measure the cell density and viability.
(§11) 7) The concentration of GLP-1R/GIPR/GCGR cells was diluted to 2.0*105/mL with the assay buffer.
(§12) 8) […] of the diluted cell suspension was transferred to the OptiPlate-384 plate.
(§13) 9) The plate was incubated at room temperature for 30 minutes.
(§14) 1) 10 μL of 800 nM gradient diluted cAMP standard was added into an empty well of the OptiPlate-384 plate.
(§15) 2) 10 μL of cAMP assay reagent was added.
(§16) 3) The OptiPlate-384 plate was covered with a TopSeal-A film and incubated at room temperature for 60 minutes.
(§17) The TopSeal-A was peeled off and the plate was read on the EnVision.
A general note: Cyclic AMP is a second messenger, typically raised through Gs and lowered through Gi signalling.

Test [2] addresses T2, GCGR (Homo sapiens, UniProt P47871).
T2 construct: host or cells: HEK293
Put plainly: In vitro agonistic activity on GCGR (cAMP assay). The following applies: HEK293 cell line; for Agonistic activity on GCGR Max Activity (%): Max Dose 100 nM. The method, then:
as §1, §2, §3, §4, §5, §6, §7, §8, §9, §10, §11, §12, §13, §14, §15, §16, §17

Test [3] addresses T3, GLP-1R (Homo sapiens, UniProt P43220).
T3 construct: host or cells: HEK293
Put plainly: In vitro agonistic activity on GLP-1R (cAMP assay). The note with it: HEK293 cell line; for Agonistic activity on GLP-1R Max Activity (%): Max Dose 20 nM. The method, then: as §1, §2, §3, §4, §5, §6, §7, §8, §9, §10, §11, §12, §13, §14, §15, §16, §17

Each structure is given as a SMILES string.

In general, EC50 refers to the concentration needed to bring the measured effect to its halfway point. Low values mean greater potency, high ones weaker potency.

T2 sequence (P47871 26-477, species assumed): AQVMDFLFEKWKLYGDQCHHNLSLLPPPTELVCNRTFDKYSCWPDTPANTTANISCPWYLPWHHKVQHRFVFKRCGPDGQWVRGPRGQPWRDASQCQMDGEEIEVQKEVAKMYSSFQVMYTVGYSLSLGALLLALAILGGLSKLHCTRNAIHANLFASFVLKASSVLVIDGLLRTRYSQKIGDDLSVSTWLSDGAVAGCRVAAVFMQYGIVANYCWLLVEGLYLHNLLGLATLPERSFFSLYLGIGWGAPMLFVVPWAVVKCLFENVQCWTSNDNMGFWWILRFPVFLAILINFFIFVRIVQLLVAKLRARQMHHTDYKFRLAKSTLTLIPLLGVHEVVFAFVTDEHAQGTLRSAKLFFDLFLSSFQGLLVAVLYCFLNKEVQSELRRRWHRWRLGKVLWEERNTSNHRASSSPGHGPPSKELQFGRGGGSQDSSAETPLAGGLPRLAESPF
T3 sequence (P43220 24-463, species assumed): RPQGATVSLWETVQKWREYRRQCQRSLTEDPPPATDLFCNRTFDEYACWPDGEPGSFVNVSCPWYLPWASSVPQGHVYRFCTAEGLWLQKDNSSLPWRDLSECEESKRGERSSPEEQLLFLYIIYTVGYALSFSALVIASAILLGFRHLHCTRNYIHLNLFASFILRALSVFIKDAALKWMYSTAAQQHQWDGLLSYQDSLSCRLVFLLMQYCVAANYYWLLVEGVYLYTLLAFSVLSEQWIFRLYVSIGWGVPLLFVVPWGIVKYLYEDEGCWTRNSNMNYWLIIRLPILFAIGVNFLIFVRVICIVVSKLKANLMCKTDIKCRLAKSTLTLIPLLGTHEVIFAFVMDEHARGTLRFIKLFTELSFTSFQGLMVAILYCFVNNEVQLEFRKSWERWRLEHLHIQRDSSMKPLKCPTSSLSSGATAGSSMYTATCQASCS

Consider `CC(C)C[C@H](NC(=O)[C@H](CC(C)C)NC(=O)[C@H](Cc1c[nH]c2ccccc12)NC(=O)[C@H](CCC(=O)O)NC(=O)[C@@H](NC(=O)[C@H](Cc1ccccc1)NC(=O)[C@@H]1CCCCNC(=O)CN(C(=O)COCCOCCNC(=O)COCCOCCNC(=O)CC[C@H](NC(=O)CCCCCCCCCCCCCCCCCCC(=O)O)C(=O)O)CC(=O)NCCCC[C@H](NC(=O)[C@H](CCC(=O)O)NC(=O)[C@H](CC(=O)O)NC(=O)[C@H](CC(C)C)NC(=O)[C@H](Cc2ccc(O)cc2)NC(=O)[C@H](CCCCN)NC(=O)[C@H](CO)NC(=O)[C@H](Cc2ccc(O)cc2)NC(=O)[C@H](CC(=O)O)NC(=O)[C@H](CO)NC(=O)[C@@H](NC(=O)[C@H](Cc2ccccc2)NC(=O)[C@@H](NC(=O)CNC(=O)[C@H](CCC(N)=O)NC(=O)C(C)(C)NC(=O)[C@@H](N)Cc2c[nH]cn2)[C@@H](C)O)[C@@H](C)O)C(=O)N[C@@H](CCCCN)C(=O)N[C@@H](C)C(=O)N[C@@H](CCCCN)C(=O)N1)C(C)C)C(=O)N[C@@H](CCC(=O)O)C(=O)NCC(=O)NCC(=O)N1CCC[C@H]1C(=O)N[C@@H](CO)C(=O)N[C@@H](CO)C(=O)NCC(N)=O` [WX002], for which, in test [1], the EC50 is over 20 nM and the “Agonistic activity on GIPR Max Activity (%)” value is listed as 4.06%. In test [2], the EC50 worked out at 0.195 nM and the “Agonistic activity on GCGR Max Activity (%)” value came to 144.14%. Besides, in test [3], the concentration giving a half-maximal response (EC50) worked out at 0.0169 nM and the “Agonistic activity on GLP-1R Max Activity (%)” value was found to be 106.52%.

Consider `CC(C)C[C@@H]1NC(=O)[C@H](CC(C)C)NC(=O)[C@H](Cc2c[nH]c3ccccc23)NC(=O)[C@@H](NC(=O)[C@@H](NC(=O)[C@H](Cc2ccccc2)NC(=O)[C@H](CCC(=O)O)NC(=O)[C@H](CCCCN)NC(=O)[C@H](C)NC(=O)[C@H](CCCCN)NC(=O)[C@H](CCCCN)NC(=O)[C@H](CCC(=O)O)NC(=O)[C@H](CC(=O)O)NC(=O)[C@H](CC(C)C)NC(=O)[C@H](Cc2ccc(O)cc2)NC(=O)[C@H](CCCCN)NC(=O)[C@H](CO)NC(=O)[C@H](Cc2ccc(O)cc2)NC(=O)[C@H](CC(=O)O)NC(=O)[C@H](CO)NC(=O)[C@@H](NC(=O)[C@H](Cc2ccccc2)NC(=O)[C@@H](NC(=O)CNC(=O)[C@H](CCC(N)=O)NC(=O)C(C)(C)NC(=O)[C@@H](N)Cc2c[nH]cn2)[C@@H](C)O)[C@@H](C)O)C(C)C)CCCCNC(=O)CN(C(=O)COCCOCCNC(=O)COCCOCCNC(=O)CC[C@H](NC(=O)CCCCCCCCCCCCCCCCCCC(=O)O)C(=O)O)CC(=O)NCCCC[C@@H](C(=O)NCC(=O)NCC(=O)N2CCC[C@H]2C(=O)N[C@@H](CO)C(=O)N[C@@H](CO)C(=O)NCC(N)=O)NC1=O` [WX005], for which, in test [1], the EC50 is over 20 nM and the “Agonistic activity on GIPR Max Activity (%)” value turned out to be 1.42%. For the same compound, in test [2], the midpoint of the response, the EC50, lay at 2.99 nM and the “Agonistic activity on GCGR Max Activity (%)” value was 140.57%. Also, in test [3], the EC50 is 0.112 nM and the “Agonistic activity on GLP-1R Max Activity (%)” value was 104.24%.

For the compound `CC(C)C[C@H](NC(=O)[C@H](CC(C)C)NC(=O)[C@H](Cc1c[nH]c2ccccc12)NC(=O)[C@H](CCC(=O)O)NC(=O)[C@@H](NC(=O)[C@H](Cc1ccccc1)NC(=O)[C@@H]1CCCCNC(=O)CN(C(=O)COCCOCCNC(=O)COCCOCCNC(=O)CC[C@H](NC(=O)CCCCCCCCCCCCCCCCCCC(=O)O)C(=O)O)CC(=O)NCCCC[C@H](NC(=O)[C@H](CCCCN)NC(=O)[C@H](CCC(=O)O)NC(=O)[C@H](CC(=O)O)NC(=O)[C@H](CC(C)C)NC(=O)[C@H](Cc2ccc(O)cc2)NC(=O)[C@H](CCCCN)NC(=O)[C@H](CO)NC(=O)[C@H](Cc2ccc(O)cc2)NC(=O)[C@H](CC(=O)O)NC(=O)[C@H](CO)NC(=O)[C@@H](NC(=O)[C@H](Cc2ccccc2)NC(=O)[C@@H](NC(=O)CNC(=O)[C@H](CCC(N)=O)NC(=O)C(C)(C)NC(=O)[C@@H](N)Cc2c[nH]cn2)[C@@H](C)O)[C@@H](C)O)C(=O)N[C@@H](C)C(=O)N[C@@H](CCCCN)C(=O)N1)C(C)C)C(=O)N[C@@H](CCC(=O)O)C(=O)NCC(=O)NCC(=O)N1CCC[C@H]1C(=O)N[C@@H](CO)C(=O)N[C@@H](CO)C(=O)NCC(N)=O` [WX003], in test [1], the EC50 is over 20 nM and the “Agonistic activity on GIPR Max Activity (%)” value came to 1.57%. Besides, in test [2], the EC50 was determined as 0.624 nM and the “Agonistic activity on GCGR Max Activity (%)” value was found to be 86.01%. Also, in test [3], it took 0.0582 nM to reach a half-maximal effect (EC50) and the “Agonistic activity on GLP-1R Max Activity (%)” value came out at 111.18%.
